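Values below derive from 48-hour exposures of cells grown in 96-well plates, with endpoints linearly interpolated between the two concentrations bracketing the appropriate inhibition level. At the GI50, growth is halved. TGI: concentration producing complete growth inhibition.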
Assays:
Assay in all cases: NCI-60 cell line screen, 48 h
HCT-15 colon = system: HCT-15 colon
U251 CNS = system: U251 CNS
SW-620 colon = system: SW-620 colon
SF-539 CNS = system: SF-539 CNS
MDA-MB-435 = system: MDA-MB-435
EKVX NSCLC = system: EKVX NSCLC
MCF7 breast = system: MCF7 breast
OVCAR-3 ovarian = system: OVCAR-3 ovarian
KM12 colon = system: KM12 colon
LOX IMVI melanoma = system: LOX IMVI melanoma
UO-31 renal = system: UO-31 renal
HL-60(TB) leukemia = system: HL-60(TB) leukemia
OVCAR-8 ovarian = system: OVCAR-8 ovarian
COLO 205 colon = system: COLO 205 colon
SN12C renal = system: SN12C renal
OVCAR-5 ovarian = system: OVCAR-5 ovarian
MDA-MB-231 breast = system: MDA-MB-231 breast
OVCAR-4 ovarian = system: OVCAR-4 ovarian
UACC-62 melanoma = system: UACC-62 melanoma
SNB-75 CNS = system: SNB-75 CNS
NCI/ADR-RES ovarian = system: NCI/ADR-RES ovarian
SR leukemia = system: SR leukemia
SF-295 CNS = system: SF-295 CNS
A549 NSCLC = system: A549 NSCLC
SK-MEL-2 melanoma = system: SK-MEL-2 melanoma
SNB-19 CNS = system: SNB-19 CNS
SF-268 CNS = system: SF-268 CNS
BT-549 breast = system: BT-549 breast
HCT-116 colon = system: HCT-116 colon
TK-10 renal = system: TK-10 renal
NCI-H460 lung = system: NCI-H460 lung
786-0 renal = system: 786-0 renal
A498 renal = system: A498 renal
NCI-H226 lung = system: NCI-H226 lung
K-562 leukemia = system: K-562 leukemia
CCRF-CEM leukemia = system: CCRF-CEM leukemia
SK-OV-3 ovarian = system: SK-OV-3 ovarian
HS 578T breast = system: HS 578T breast
NCI-H522 lung = system: NCI-H522 lung
HCC-2998 colon = system: HCC-2998 colon
SK-MEL-28 melanoma = system: SK-MEL-28 melanoma
NCI-H23 lung = system: NCI-H23 lung
HOP-92 NSCLC = system: HOP-92 NSCLC
M14 melanoma = system: M14 melanoma
PC-3 prostate = system: PC-3 prostate
ACHN renal = system: ACHN renal
HOP-62 NSCLC = system: HOP-62 NSCLC
HT29 colon = system: HT29 colon
UACC-257 melanoma = system: UACC-257 melanoma
IGROV1 ovarian = system: IGROV1 ovarian
SK-MEL-5 melanoma = system: SK-MEL-5 melanoma
RPMI-8226 leukemia = system: RPMI-8226 leukemia
MALME-3M melanoma = system: MALME-3M melanoma
RXF 393 renal = system: RXF 393 renal
DU-145 prostate = system: DU-145 prostate
CAKI-1 renal = system: CAKI-1 renal
T-47D breast = system: T-47D breast
MOLT-4 leukemia = system: MOLT-4 leukemia

Cc1ccc(C(=O)/C(=C/c2ccc([N+](=O)[O-])cc2)S(=O)Cc2ccccc2)cc1 (configuration not stated)
GI50 (HCT-15 colon): 1.07 µM
TGI (HCT-15 colon): 2.59 µM
GI50 (U251 CNS): 1.02 µM
TGI (U251 CNS): 2.24 µM
GI50 (SW-620 colon): 0.916 µM
TGI (SW-620 colon): 2.94 µM
GI50 (SF-539 CNS): 1.69 µM
TGI (SF-539 CNS): 3.1 µM
GI50 (MDA-MB-435): 1.47 µM
TGI (MDA-MB-435): 3.04 µM
GI50 (EKVX NSCLC): 1.6 µM
TGI (EKVX NSCLC): 3.13 µM
GI50 (MCF7 breast): 0.372 µM
TGI (MCF7 breast): 2.2 µM
GI50 (OVCAR-3 ovarian): 1.28 µM
TGI (OVCAR-3 ovarian): 2.57 µM
GI50 (KM12 colon): 1.56 µM
TGI (KM12 colon): 3.4 µM
GI50 (LOX IMVI melanoma): 0.417 µM
TGI (LOX IMVI melanoma): 1.67 µM
GI50 (UO-31 renal): 1.17 µM
TGI (UO-31 renal): 2.55 µM
GI50 (HL-60(TB) leukemia): 1.59 µM
TGI (HL-60(TB) leukemia): 5.81 µM
GI50 (OVCAR-8 ovarian): 1.36 µM
TGI (OVCAR-8 ovarian): 3.23 µM
GI50 (COLO 205 colon): 1.47 µM
TGI (COLO 205 colon): 3.16 µM
GI50 (SN12C renal): 1.71 µM
TGI (SN12C renal): 3.4 µM
GI50 (OVCAR-5 ovarian): 1.69 µM
TGI (OVCAR-5 ovarian): 3.61 µM
GI50 (MDA-MB-231 breast): 1.19 µM
TGI (MDA-MB-231 breast): 2.77 µM
GI50 (OVCAR-4 ovarian): 1.35 µM
TGI (OVCAR-4 ovarian): 2.78 µM
GI50 (UACC-62 melanoma): 1.3 µM
TGI (UACC-62 melanoma): 2.79 µM
GI50 (SNB-75 CNS): 1.27 µM
TGI (SNB-75 CNS): 2.73 µM
GI50 (NCI/ADR-RES ovarian): 2.46 µM
TGI (NCI/ADR-RES ovarian): > 100 µM
GI50 (SR leukemia): 0.539 µM
TGI (SR leukemia): 5.21 µM
GI50 (SF-295 CNS): 2.45 µM
TGI (SF-295 CNS): 5.96 µM
GI50 (A549 NSCLC): 2.26 µM
TGI (A549 NSCLC): 5.66 µM
GI50 (SK-MEL-2 melanoma): 1.57 µM
TGI (SK-MEL-2 melanoma): 3.26 µM
GI50 (SNB-19 CNS): 1.55 µM
TGI (SNB-19 CNS): 3.07 µM
GI50 (SF-268 CNS): 1.71 µM
TGI (SF-268 CNS): 3.72 µM
GI50 (BT-549 breast): 1.79 µM
TGI (BT-549 breast): 3.49 µM
GI50 (HCT-116 colon): 1.57 µM
TGI (HCT-116 colon): 2.99 µM
GI50 (TK-10 renal): 1.78 µM
TGI (TK-10 renal): 3.26 µM
GI50 (NCI-H460 lung): 1.83 µM
TGI (NCI-H460 lung): 4.92 µM
GI50 (786-0 renal): 1.44 µM
TGI (786-0 renal): 2.81 µM
GI50 (A498 renal): 1.75 µM
TGI (A498 renal): 3.4 µM
GI50 (NCI-H226 lung): 1.71 µM
TGI (NCI-H226 lung): 4.72 µM
GI50 (K-562 leukemia): 0.623 µM
TGI (K-562 leukemia): 12.4 µM
GI50 (CCRF-CEM leukemia): 0.396 µM
TGI (CCRF-CEM leukemia): > 100 µM
GI50 (SK-OV-3 ovarian): 3.46 µM
TGI (SK-OV-3 ovarian): 12.5 µM
GI50 (HS 578T breast): 2.58 µM
TGI (HS 578T breast): 8.87 µM
GI50 (NCI-H522 lung): 1.46 µM
TGI (NCI-H522 lung): 2.9 µM
GI50 (HCC-2998 colon): 1.78 µM
TGI (HCC-2998 colon): 3.29 µM
GI50 (SK-MEL-28 melanoma): 1.66 µM
TGI (SK-MEL-28 melanoma): 3.15 µM
GI50 (NCI-H23 lung): 1.86 µM
TGI (NCI-H23 lung): 5.25 µM
GI50 (HOP-92 NSCLC): 1.41 µM
TGI (HOP-92 NSCLC): 3.22 µM
GI50 (M14 melanoma): 1.48 µM
TGI (M14 melanoma): 2.94 µM
GI50 (PC-3 prostate): 1.35 µM
TGI (PC-3 prostate): 2.95 µM
GI50 (ACHN renal): 1.56 µM
TGI (ACHN renal): 2.92 µM
GI50 (HOP-62 NSCLC): 2.02 µM
TGI (HOP-62 NSCLC): 4.46 µM
GI50 (HT29 colon): 1 µM
TGI (HT29 colon): 2.44 µM
GI50 (UACC-257 melanoma): 1.65 µM
TGI (UACC-257 melanoma): 3.08 µM
GI50 (IGROV1 ovarian): 1.42 µM
TGI (IGROV1 ovarian): 3.29 µM
GI50 (SK-MEL-5 melanoma): 1.6 µM
TGI (SK-MEL-5 melanoma): 2.99 µM
GI50 (RPMI-8226 leukemia): 0.404 µM
TGI (RPMI-8226 leukemia): 2.35 µM
GI50 (MALME-3M melanoma): 1.69 µM
TGI (MALME-3M melanoma): 3.54 µM
GI50 (RXF 393 renal): 1.47 µM
TGI (RXF 393 renal): 3 µM
GI50 (DU-145 prostate): 1.34 µM
TGI (DU-145 prostate): 2.69 µM

COc1cc(-c2csc(NC(=O)c3cc(C(F)(F)F)cc(C(F)(F)F)c3)n2)cc(OC)c1OC
GI50 (HCT-15 colon): 2.71 µM
TGI (HCT-15 colon): > 100 µM
GI50 (U251 CNS): 2.7 µM
TGI (U251 CNS): > 100 µM
GI50 (SW-620 colon): 3.44 µM
TGI (SW-620 colon): > 100 µM
GI50 (CAKI-1 renal): 2.63 µM
TGI (CAKI-1 renal): > 100 µM
GI50 (SF-539 CNS): 3.35 µM
TGI (SF-539 CNS): > 100 µM
GI50 (MDA-MB-435): 2.67 µM
TGI (MDA-MB-435): > 100 µM
GI50 (EKVX NSCLC): 2.47 µM
TGI (EKVX NSCLC): > 100 µM
GI50 (MCF7 breast): 2.16 µM
TGI (MCF7 breast): > 100 µM
GI50 (OVCAR-3 ovarian): 2.98 µM
TGI (OVCAR-3 ovarian): 19 µM
GI50 (KM12 colon): 2.86 µM
TGI (KM12 colon): > 100 µM
GI50 (LOX IMVI melanoma): 2.92 µM
TGI (LOX IMVI melanoma): > 100 µM
GI50 (UO-31 renal): 2.57 µM
TGI (UO-31 renal): > 100 µM
GI50 (HL-60(TB) leukemia): 2.07 µM
TGI (HL-60(TB) leukemia): 6.18 µM
GI50 (OVCAR-8 ovarian): 2.77 µM
TGI (OVCAR-8 ovarian): > 100 µM
GI50 (COLO 205 colon): 2.63 µM
TGI (COLO 205 colon): 7.29 µM
GI50 (SN12C renal): 2.78 µM
TGI (SN12C renal): > 100 µM
GI50 (OVCAR-5 ovarian): 3.94 µM
TGI (OVCAR-5 ovarian): > 100 µM
GI50 (MDA-MB-231 breast): 2.72 µM
TGI (MDA-MB-231 breast): > 100 µM
GI50 (OVCAR-4 ovarian): 2.86 µM
TGI (OVCAR-4 ovarian): > 100 µM
GI50 (SNB-75 CNS): 2.83 µM
TGI (SNB-75 CNS): > 100 µM
GI50 (SR leukemia): 2.67 µM
TGI (SR leukemia): 11.6 µM
GI50 (SF-295 CNS): 2.27 µM
TGI (SF-295 CNS): 14.7 µM
GI50 (A549 NSCLC): 2.58 µM
TGI (A549 NSCLC): > 100 µM
GI50 (SK-MEL-2 melanoma): 1.6 µM
TGI (SK-MEL-2 melanoma): 4.81 µM
GI50 (SNB-19 CNS): 3.89 µM
TGI (SNB-19 CNS): > 100 µM
GI50 (SF-268 CNS): 3.64 µM
TGI (SF-268 CNS): > 100 µM
GI50 (BT-549 breast): 2.16 µM
TGI (BT-549 breast): 6.66 µM
GI50 (TK-10 renal): 2.49 µM
TGI (TK-10 renal): > 100 µM
GI50 (NCI-H460 lung): 2.97 µM
TGI (NCI-H460 lung): > 100 µM
GI50 (786-0 renal): 3.16 µM
TGI (786-0 renal): > 100 µM
GI50 (A498 renal): 2.63 µM
TGI (A498 renal): > 100 µM
GI50 (K-562 leukemia): 2.75 µM
TGI (K-562 leukemia): > 100 µM
GI50 (CCRF-CEM leukemia): 2.83 µM
TGI (CCRF-CEM leukemia): > 100 µM
GI50 (SK-OV-3 ovarian): 2.91 µM
TGI (SK-OV-3 ovarian): 9.76 µM
GI50 (HS 578T breast): 3.14 µM
TGI (HS 578T breast): > 100 µM
GI50 (NCI-H522 lung): 1.4 µM
TGI (NCI-H522 lung): 5.05 µM
GI50 (HCC-2998 colon): 3.2 µM
TGI (HCC-2998 colon): > 100 µM
GI50 (SK-MEL-28 melanoma): 2.77 µM
TGI (SK-MEL-28 melanoma): > 100 µM
GI50 (T-47D breast): 1.84 µM
TGI (T-47D breast): 6.29 µM
GI50 (HOP-92 NSCLC): 0.848 µM
TGI (HOP-92 NSCLC): 4.11 µM
GI50 (M14 melanoma): 2.91 µM
TGI (M14 melanoma): > 100 µM
GI50 (PC-3 prostate): 1.73 µM
TGI (PC-3 prostate): 7.35 µM
GI50 (MOLT-4 leukemia): 1.92 µM
TGI (MOLT-4 leukemia): 4.98 µM
GI50 (ACHN renal): 3.42 µM
TGI (ACHN renal): > 100 µM
GI50 (HOP-62 NSCLC): 3.03 µM
TGI (HOP-62 NSCLC): > 100 µM
GI50 (HT29 colon): 2.07 µM
TGI (HT29 colon): > 100 µM
GI50 (IGROV1 ovarian): 4.37 µM
TGI (IGROV1 ovarian): > 100 µM
GI50 (SK-MEL-5 melanoma): 1.47 µM
TGI (SK-MEL-5 melanoma): 3.11 µM
GI50 (RPMI-8226 leukemia): 1.38 µM
TGI (RPMI-8226 leukemia): 4.05 µM
GI50 (RXF 393 renal): 1.96 µM
TGI (RXF 393 renal): 8.94 µM
GI50 (DU-145 prostate): 3.62 µM
TGI (DU-145 prostate): > 100 µM
